The record followed here is US9884806B2, “Cyclic vinylogous amides as bromodomain inhibitors” (ICAHN SCHOOL OF MEDICINE AT MOUNT SINAI, priority 2013, dated 2018).

Some results are limits rather than exact numbers.

Assay [1] addresses T1, first bromodomain (BrD1) of human BRD4 (Homo sapiens, UniProt O60885).
T1 construct: the first bromodomain (BrD1) of human BRD4; poly-His (cleaved yes); made in house
As to the kind of experiment: Fluorescence anisotropy binding assay (competition with FITC-labeled MS417 probe). The conditions noted are these: FITC-MS417 probe 80 nM, PBS pH 7.4, 1 hour, 25° C., read-out: BRD4_1 IC50. On the procedure:
Fluorescence Anisotropy Binding Assay
Expression and purification of the first bromodomain (BrD1) of human BRD4 in poly-His tag form was performed using a procedure described in the literature [See Zeng et al. Structure 16, 643-652 (2008) and Zhang et al., J Biol Chem 287, 28840-28851 (2012).] The protein was purified by using affinity chromatography on a nickel-IDA column (Invitrogen), followed by the removal of poly-His tag by thrombin cleavage.
Binding affinity of the newly synthesized compounds to the BRD4 BrD1 was assessed in a fluorescence anisotropy assay using a fluorescein isothiocyanate (FITC)-labeled MS417 as an assay probe (Zhang et al. 2008 op.cit.). Competition binding was performed with a BrD protein (0.25 to 1 μM) and the fluorescent probe (80 nM), and increasing concentration of unlabeled competing ligand in a PBS buffer (pH 7.4) in total volume of 80 μL. Measurements were obtained after 1 hour incubation of the fluorescent ligand and the protein at 25° C. with Safire 2 microplate reader (Tecan). In the assay, fluorescent ligand concentration was ≦2Kd, and protein concentration was set at which 50-80% of fluorescent ligand is bound. Dissociation constant of a competing ligand was calculated with the correction to Cheng-Prussoff equation introduced by Nicolovska-Coleska and colleagues [Nikolovska-Coleska, Z. et al., Anal Biochem 332, 261-273 (2004). Assuming one-site competitive binding model, the equation used to calculate Ki's from IC50 values recovered from fitting data using Prism:
[formula] where [I50] is the concentration of free inhibitor at 50% inhibition, [L50], the concentration of free labeled ligand at 50% inhibition, and [P0], concentration of free protein at 0% inhibition. Note that Kd for each protein-probe pair is the limit of resolvable Ki in a competition assay.

The target of assay [2] is T2, BRD4_2 (Homo sapiens, UniProt O60885).
T2 construct: contains two tandem bromodomains (BrD1 and BrD2)
As to the kind of experiment: Fluorescence anisotropy binding assay (competition with FITC-labeled MS417 probe), BRD4_2. The conditions noted are these: FITC-MS417 probe 80 nM, PBS pH 7.4, 1 hour, 25° C. Background: Polarisation of emitted light reports the rotation of a fluorescent probe.

For orientation: IC50 means the point on the concentration scale where inhibition reaches its midpoint. `CC1=C(Nc2ccc(C(=O)Nc3cccc(C)c3)cc2Cl)CCC1=O` [Example 04-21, 3-chloro-4-((2-methyl-3-oxocyclopent-1-en-1-yl)amino)-N-(m-tolyl)benzamide]: the IC50 in assay [1] is less than 1 µM; in assay [2] it was 1 to 10 µM.
The like results for `CC1=C(Nc2ccc(C(=O)Nc3ccc(C)cc3)cc2Cl)CCC1=O` [Example 04-22, 3-chloro-4-((2-methyl-3-oxocyclopent-1-en-1-yl)amino)-N-(p-tolyl)benzamide] were, in that order, 1 to 10 µM and 1 to 10 µM.
For `CC1=C(N[C@H]2CC[C@H](C(=O)Nc3ccccc3)CC2)CCC1=O` [Example 04-26, (1R,4R)-4-((2-methyl-3-oxocyclopent-1-en-1-yl)amino)-N-phenylcyclohexane-carboxamide], the IC50 in assay [1] and in assay [2] was greater than 10 µM in each case.
`CC1=C(N[C@H]2CC[C@H](C(=O)Nc3ccccc3C)CC2)CCC1=O` [Example 04-30, (1R,4R)-4-((2-methyl-3-oxocyclopent-1-en-1-yl)amino)-N-(o-tolyl)cyclohexanecarboxamide]: the IC50 in assay [1] and in assay [2] was greater than 10 µM each time.
With `CC1=C(N[C@H]2CC[C@H](C(=O)Nc3ccc(C)cc3)CC2)CCC1=O` [Example 04-32, (1R,4R)-4-((2-methyl-3-oxocyclopent-1-en-1-yl)amino)-N-(p-tolyl)-cyclohexanecarboxamide], the IC50 in assay [1] and in assay [2] was greater than 10 µM each time.
`CC1=C(N[C@H]2CC[C@@H](C(=O)Nc3ccccc3)CC2)CCC1=O` [Example 04-36, (1S,4S)-4-((2-methyl-3-oxocyclopent-1-en-1-yl)amino)-N-phenylcyclohexane-carboxamide]: the IC50 in assay [1] and in assay [2] was greater than 10 µM in each case.
`CC1=C(N[C@H]2CC[C@@H](C(=O)Nc3ccc(C)cc3)CC2)CCC1=O` [Example 04-40]: the IC50 in assay [1] and in assay [2] was greater than 10 µM each time.
For `CC1=C(Nc2ccc(C(=O)NC3CCCCC3)c(Cl)c2)CCC1=O` [Example 04-43, 2-chloro-N-cyclohexyl-4-((2-methyl-3-oxocyclopent-1-en-1-yl)amino)benzamide], the 50% inhibitory concentration (IC50) in assay [1] and in assay [2] was greater than 10 µM in each case.
With `CC1=C(Nc2ccc(C(=O)Nc3cccc4ccccc34)c(Cl)c2)CCC1=O` [Example 04-44, 2-chloro-4-((2-methyl-3-oxocyclopent-1-en-1-yl)amino)-N-(naphthalen-1-yl)-benzamide], the figures for the IC50 in assay [1] and in assay [2] were 1 to 10 µM and greater than 10 µM, respectively.
Consider `CC1=C(Nc2ccc(C(=O)Nc3ccccc3)c(Cl)c2)CCC1=O` [Example 04-45, 2-chloro-4-((2-methyl-3-oxocyclopent-1-en-1-yl)amino)-N-phenylbenzamide], for which the IC50 in assay [1] and in assay [2] was greater than 10 µM in each case.
Consider `COc1ccccc1NC(=O)c1ccc(NC2=C(C)C(=O)CC2)cc1Cl` [Example 04-46, 2-chloro-N-(2-methoxyphenyl)-4-((2-methyl-3-oxocyclopent-1-en-1-yl)amino)benzamide], for which the IC50 in assay [1] is 1 to 10 µM; in assay [2], greater than 10 µM.
In the case of `COc1cccc(NC(=O)c2ccc(NC3=C(C)C(=O)CC3)cc2Cl)c1` [Example 04-47, 2-chloro-N-(3-methoxyphenyl)-4-((2-methyl-3-oxocyclopent-1-en-1-yl)amino)benzamide], the concentration for half-maximal inhibition (IC50) in assay [1] and in assay [2] was greater than 10 µM in each case.
Turning to `COc1ccc(NC(=O)c2ccc(NC3=C(C)C(=O)CC3)cc2Cl)cc1` [Example 04-48, 2-chloro-N-(4-methoxyphenyl)-4-((2-methyl-3-oxocyclopent-1-en-1-yl)amino)-benzamide], the IC50 in assay [1] and in assay [2] was 1 to 10 µM throughout.
As to `CC1=C(Nc2ccc(C(=O)Nc3ccccc3C)c(Cl)c2)CCC1=O` [Example 04-49, 2-chloro-4-((2-methyl-3-oxocyclopent-1-en-1-yl)amino)-N-(o-tolyl)benzamide], the concentration for half-maximal inhibition (IC50) in assay [1] was 1 to 10 µM; in assay [2], greater than 10 µM.
The like results for `CC1=C(Nc2ccc(C(=O)Nc3cccc(C)c3)c(Cl)c2)CCC1=O` [Example 04-50, 2-chloro-4-((2-methyl-3-oxocyclopent-1-en-1-yl)amino)-N-(m-tolyl)benzamide] were, in that order, greater than 10 µM and greater than 10 µM.
For the compound `CC1=C(Nc2ccc(C(=O)Nc3ccc(C)cc3)c(Cl)c2)CCC1=O` [Example 04-51, 2-chloro-4-((2-methyl-3-oxocyclopent-1-en-1-yl)amino)-N-(p-tolyl)benzamide], the 50% inhibitory concentration (IC50) in assay [1] and in assay [2] was greater than 10 µM each time.
On to `CC1=C(Nc2ccc(C(=O)Nc3cccc(F)c3)c(Cl)c2)CCC1=O` [Example 04-52, 2-chloro-N-(3-fluorophenyl)-4-((2-methyl-3-oxocyclopent-1-en-1-yl)amino)-benzamide], for which the IC50 in assay [1] and in assay [2] was greater than 10 µM each time.
For the compound `CNC(=O)c1ccc(NC2=C(C)C(=O)CC2)c(OC)c1` [Example 04-53, 3-methoxy-N-methyl-4-((2-methyl-3-oxocyclopent-1-en-1-yl)amino)benzamide], the IC50 in assay [1] and in assay [2] was 1 to 10 µM each time.
Take `COc1cc(C(=O)NC2CCCCC2)ccc1NC1=C(C)C(=O)CC1` [Example 04-54, N-cyclohexyl-3-methoxy-4-((2-methyl-3-oxocyclopent-1-en-1-yl)amino)-benzamide]: the IC50 in assay [1] and in assay [2] was 1 to 10 µM throughout.
On to `COc1cc(C(=O)Nc2cccc3ccccc23)ccc1NC1=C(C)C(=O)CC1` [Example 04-55, 3-methoxy-4-((2-methyl-3-oxocyclopent-1-en-1-yl)amino)-N-(naphthalen-1-yl)-benzamide], for which the IC50 in assay [1] and in assay [2] was 1 to 10 µM each time.
Turning to `COc1cc(C(=O)Nc2ccccc2)ccc1NC1=C(C)C(=O)CC1` [Example 04-56, 3-methoxy-4-((2-methyl-3-oxocyclopent-1-en-1-yl)amino)-N-phenylbenzamide], the IC50 in assay [1] and in assay [2] was 1 to 10 µM in each case.
On to `COc1ccccc1NC(=O)c1ccc(NC2=C(C)C(=O)CC2)c(OC)c1` [Example 04-57, 3-methoxy-N-(2-methoxyphenyl)-4-((2-methyl-3-oxocyclopent-1-en-1-yl)amino)-benzamide], for which the IC50 in assay [1] and in assay [2] was 1 to 10 µM in each case.
As to `COc1cccc(NC(=O)c2ccc(NC3=C(C)C(=O)CC3)c(OC)c2)c1` [Example 04-58, 3-methoxy-N-(3-methoxyphenyl)-4-((2-methyl-3-oxocyclopent-1-en-1-yl)amino)-benzamide], the IC50 in assay [1] and in assay [2] was 1 to 10 µM in each case.
For `COc1ccc(NC(=O)c2ccc(NC3=C(C)C(=O)CC3)c(OC)c2)cc1` [Example 04-59, 3-methoxy-N-(4-methoxyphenyl)-4-((2-methyl-3-oxocyclopent-1-en-1-yl)amino)-benzamide], the IC50 in assay [1] and in assay [2] was 1 to 10 µM each time.
As to `COc1cc(C(=O)Nc2ccccc2C)ccc1NC1=C(C)C(=O)CC1` [Example 04-60, 3-methoxy-4-((2-methyl-3-oxocyclopent-1-en-1-yl)amino)-N-(o-tolyl)benzamide], the IC50 in assay [1] and in assay [2] was 1 to 10 µM each time.
As for `COc1cc(C(=O)Nc2cccc(C)c2)ccc1NC1=C(C)C(=O)CC1` [Example 04-61, 3-methoxy-4-((2-methyl-3-oxocyclopent-1-en-1-yl)amino)-N-(m-tolyl)benzamide], the IC50 in assay [1] and in assay [2] was 1 to 10 µM throughout.
For `COc1cc(C(=O)Nc2ccc(C)cc2)ccc1NC1=C(C)C(=O)CC1` [Example 04-62, 3-methoxy-4-((2-methyl-3-oxocyclopent-1-en-1-yl)amino)-N-(p-tolyl)benzamide], the IC50 in assay [1] and in assay [2] was 1 to 10 µM in each case.
As to `CNC(=O)c1ccc(NC2=C(C)C(=O)CC2)cc1OC` [Example 04-65], the IC50 in assay [1] and in assay [2] was 1 to 10 µM in each case.
For the compound `COc1cc(NC2=C(C)C(=O)CC2)ccc1C(=O)NC1CCCCC1` [Example 04-66, N-cyclohexyl-2-methoxy-4-((2-methyl-3-oxocyclopent-1-en-1-yl)amino)-benzamide], the IC50 in assay [1] and in assay [2] was 1 to 10 µM throughout.
Take `COc1cc(NC2=C(C)C(=O)CC2)ccc1C(=O)Nc1cccc2ccccc12` [Example 04-67, 2-methoxy-4-((2-methyl-3-oxocyclopent-1-en-1-yl)amino)-N-(naphthalen-1-yl)benzamide]: the IC50 is less than 1 µM in assay [1] and greater than 10 µM in assay [2].
Taken in the same sequence, the figures for `COc1cc(NC2=C(C)C(=O)CC2)ccc1C(=O)Nc1ccccc1` [Example 04-68, 2-methoxy-4-((2-methyl-3-oxocyclopent-1-en-1-yl)amino)-N-phenylbenzamide] were 1 to 10 µM and 1 to 10 µM.
